Data on one molecule can be found in patent US20160015771A1, “METHOD OF TREATING OPTIC NERVE DAMAGE, OPHTHALMIC ISCHEMIA OR OPHTHALMIC REPERFUSION INJURY” (Curonz Holdings Company Limited, priority 2012, published 2016).

Assay [1] deals with Retinal Ganglion Cells (RGC). Put plainly: Retinal ganglion cell (RGC) survival by BRN3A staining of flat-mounted retinae after optic nerve ligation/reperfusion. It is filed as in vivo, Male Long-Evans rats. Particulars: 8 days after injury. The method, then:
Ischemia was maintained for 45 minutes.
At the end of the study, the animals were euthanized by intraperitoneal injection of overdosed pentobarbital. After euthanasia at day 8 after optic nerve ligation injury, the retinae of both eyes of N=6 animals per cohort were fixed in formalin 4% (1 h at room temperature), dissected and flat-mounted. The flat-mounted preparation was incubated with an Alexa 594 conjugated anti-BRN3A (Brain-specific homeobox/POU domain protein 3A, Chemicon, cat #mAb1585) to visualize the Retinal Ganglion Cells (RGC). Fluorescence was assessed by an Apotome microscope at magnification×20 (Zeiss) within twelve randomly selected respective microscopic fields per subject. The number of surviving RGC was determined with Axio Vision 4.2 software in the respective retinae areas.
Animals were sacrificed at day 8 and retinae were analysed for BrN3A (Brain-specific homeobox/POU domain protein 3A) protein expression patterns that are specific for retinal ganglion cells (RGCs). 12 fields per retina were evaluated.

The test system of assay [2] is ischemia-related optic nerve injury. Particulars: topically or intraperitoneal (IP) applied formulations; cited from earlier work.

On to `Brc1c(NC2=NCCN2)ccc2nccnc12` [Brimonidine], for which, in assay [1] (relative to non-ischemic eyes, saline group 19.6%), the “total RGCs rescued” value is 39.6%. In assay [1] (Brimonidine prophylactically applied, 1 mg/kg IP 1 h before ischemia, n=5, non-ischemic eyes 2158 RGCs/mm2), this molecule came in with an RGC density of 855.5±30.7 RGCs/mm2. For the same molecule, in assay [2], the neuroprotective activity result is given as “neuroprotective”.
